Legend:
h-cGAS = molecular target: T1, h-cGAS (Homo sapiens, UniProt Q8N884); experiment: cGAS biochemical assay, RapidFire 365 mass spectrometry (RF-MS); settings: full-length h-cGAS 100 nM, dsDNA 25 nM, ATP and GTP 100 μM, 7 h at RT
T1 construct: The final concentration of full-length h-cGAS, dsDNA, ATP, and GTP were 100 nM

THP1-Dual cells = experiment: Cell-based Lucia luciferase assay in THP1-Dual cells (dsDNA transfection); settings: Homo sapiens, 1 h pre-incubation, 100-bp dsDNA transfection for 24 h

T1 sequence (Q8N884 whole entry): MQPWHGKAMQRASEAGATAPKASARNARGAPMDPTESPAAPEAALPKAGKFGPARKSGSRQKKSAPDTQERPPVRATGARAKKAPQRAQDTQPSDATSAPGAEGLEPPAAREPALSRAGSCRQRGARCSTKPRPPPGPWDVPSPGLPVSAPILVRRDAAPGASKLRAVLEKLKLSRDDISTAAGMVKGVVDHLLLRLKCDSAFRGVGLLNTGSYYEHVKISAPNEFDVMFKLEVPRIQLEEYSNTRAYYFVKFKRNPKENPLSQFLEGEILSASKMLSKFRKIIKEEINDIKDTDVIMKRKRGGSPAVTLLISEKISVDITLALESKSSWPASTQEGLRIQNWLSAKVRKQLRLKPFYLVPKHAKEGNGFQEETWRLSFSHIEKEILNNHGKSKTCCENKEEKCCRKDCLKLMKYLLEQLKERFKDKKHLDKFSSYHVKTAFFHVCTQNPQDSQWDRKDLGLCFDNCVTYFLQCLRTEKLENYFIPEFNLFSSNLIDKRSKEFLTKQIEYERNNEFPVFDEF

SMILES | IC50 (h-cGAS) | IC50 (THP1-Dual cells)
Cn1c2c(c3ccc(Cl)c(F)c31)CN(C(=O)CO)CC2 [TDI-006570] | 0.138 µM | > 40 µM
O=C(CO)N1CCc2[nH]c3c(Cl)c(Cl)cc(-c4ccco4)c3c2C1 [TDI-008070] | 0.0228 µM | 4.95 µM
O=C(CO)N1CCc2[nH]c3c(Cl)c(Cl)cc(-c4ccccc4)c3c2C1 [TDI-008071] | 0.0393 µM | 9 µM
O=C(CO)N1CCc2[nH]c3c(Cl)c(Cl)cc(-c4cccnc4)c3c2C1 [TDI-008073] | 0.0204 µM | 6.23 µM
O=C(CO)N1CCc2[nH]c3c(Cl)c(Cl)cc(-c4cncnc4)c3c2C1 [TDI-008074] | 0.0194 µM | 6.85 µM
Cc1noc(C)c1-c1cc(Cl)c(Cl)c2[nH]c3c(c12)CN(C(=O)CO)CC3 [TDI-008096] | 5.95 µM | –
N#Cc1ccccc1-c1cc(Cl)c(Cl)c2[nH]c3c(c12)CN(C(=O)CO)CC3 [TDI-008097] | 0.0422 µM | –
N#Cc1cccc(-c2cc(Cl)c(Cl)c3[nH]c4c(c23)CN(C(=O)CO)CC4)c1 [TDI-008098] | 0.0853 µM | –
N#Cc1ncc(-c2cc(Cl)c(Cl)c3[nH]c4c(c23)CN(C(=O)CO)CC4)cn1 [TDI-008100] | 5.27 µM | –
CNc1ccc(-c2cc(Cl)c(Cl)c3[nH]c4c(c23)CN(C(=O)CO)CC4)cn1 [TDI-008101] | 0.105 µM | –
COc1cccc(-c2cc(Cl)c(Cl)c3[nH]c4c(c23)CN(C(=O)CO)CC4)n1 [TDI-008102] | 0.0402 µM | –
COc1cccnc1-c1cc(Cl)c(Cl)c2[nH]c3c(c12)CN(C(=O)CO)CC3 [TDI-008103] | 0.0441 µM | –
COc1ccnc(-c2cc(Cl)c(Cl)c3[nH]c4c(c23)CN(C(=O)CO)CC4)c1 [TDI-008104] | 0.0952 µM | –
COc1ccc(-c2cc(Cl)c(Cl)c3[nH]c4c(c23)CN(C(=O)CO)CC4)nc1 [TDI-008105] | 0.107 µM | –
COc1cc(-c2cc(Cl)c(Cl)c3[nH]c4c(c23)CN(C(=O)CO)CC4)ccn1 [TDI-008106] | 0.0493 µM | –
COc1cncc(-c2cc(Cl)c(Cl)c3[nH]c4c(c23)CN(C(=O)CO)CC4)c1 [TDI-008107] | 0.0524 µM | –
Cn1cc(-c2cc(Cl)c(Cl)c3[nH]c4c(c23)CN(C(=O)CO)CC4)ccc1=O [TDI-008108] | 0.552 µM | –
COc1cnccc1-c1cc(Cl)c(Cl)c2[nH]c3c(c12)CN(C(=O)CO)CC3 [TDI-008109] | 2.33 µM | –
COc1ncccc1-c1cc(Cl)c(Cl)c2[nH]c3c(c12)CN(C(=O)CO)CC3 [TDI-008110] | 2.97 µM | –
CNc1ncc(-c2cc(Cl)c(Cl)c3[nH]c4c(c23)CN(C(=O)CO)CC4)cn1 [TDI-008111] | 0.268 µM | –
COc1ncc(-c2cc(Cl)c(Cl)c3[nH]c4c(c23)CN(C(=O)CO)CC4)cn1 [TDI-008112] | 0.201 µM | –
Cc1nc(C)c(-c2cc(Cl)c(Cl)c3[nH]c4c(c23)CN(C(=O)CO)CC4)s1 [TDI-008113] | 0.962 µM | –
COc1ncc(-c2cc(Cl)c(Cl)c3[nH]c4c(c23)CN(C(=O)CO)CC4)s1 [TDI-008114] | 0.0622 µM | –
O=C(CO)N1CCc2[nH]c3c(Cl)c(Cl)cc(-c4cnn(C(F)F)c4)c3c2C1 [TDI-008115] | 0.0451 µM | –
O=C(CO)N1CCc2[nH]c3c(Cl)c(Cl)cc(-c4cnn5ccccc45)c3c2C1 [TDI-008116] | 0.0252 µM | 6.43 µM
O=C(CO)N1CCc2[nH]c3c(Cl)c(Cl)cc(-c4ccc5nonc5c4)c3c2C1 [TDI-008117] | 0.0182 µM | 6.19 µM

SMILES | IC50 (h-cGAS) | IC50 (THP1-Dual cells)
NC(=O)c1cccc(-c2cc(Cl)c(Cl)c3[nH]c4c(c23)CN(C(=O)CO)CC4)c1 [TDI-008118] | 0.0768 µM | –
CN(C)c1cccc(-c2cc(Cl)c(Cl)c3[nH]c4c(c23)CN(C(=O)CO)CC4)c1 [TDI-008120] | 0.438 µM | –
O=C(CO)N1CCc2c(c3ccc(Br)c(F)c3n2CC(F)(F)F)C1 [TDI-008130] | 1.12 µM | 25.8 µM
O=C(CO)N1CCc2c(c3c(-c4cn[nH]c4)cc(Cl)c(F)c3n2C(F)F)C1 [TDI-008136] | 0.416 µM | 15.9 µM
O=C(CO)N1CCc2c(c3ccc(Br)c(F)c3n2C(F)F)C1 [TDI-008179] | 0.506 µM | 34 µM
O=C(CO)N1CCc2[nH]c3c(F)c(Cl)cc(-c4cn[nH]c4)c3c2C1 [TDI-008185] | 0.0322 µM | 9.9 µM
COCCn1c2c(c3c(-c4ccn(C)n4)cc(Cl)c(F)c31)CN(C(=O)CO)CC2 [TDI-008292] | 0.402 µM | > 40 µM
CCn1ccc(-c2cc(Cl)c(Cl)c3[nH]c4c(c23)CN(C(=O)CO)CC4)n1 [TDI-008371] | 0.0232 µM | 6.52 µM
CN(C)Cc1cc(Cl)c(Cl)c2[nH]c3c(c12)CN(C(=O)CO)CC3 [TDI-008437] | 0.35 µM | –
COCCc1cc(Cl)c(Cl)c2[nH]c3c(c12)CN(C(=O)CO)CC3 [TDI-008438] | 0.112 µM | –
O=C(CO)N1CCc2[nH]c3c(Cl)c(Cl)cc(CC4CCCC4)c3c2C1 [TDI-008439] | 0.663 µM | –
O=C(CO)N1CCc2[nH]c3c(Cl)c(Cl)cc(CN4CCCC4)c3c2C1 [TDI-008440] | 2.23 µM | –
O=C(CO)N1CCc2[nH]c3c(Cl)c(Cl)cc(CN4CCCCC4)c3c2C1 [TDI-008441] | 5.22 µM | –
O=C(CO)N1CCc2[nH]c3c(Cl)c(Cl)cc(CN4CCOCC4)c3c2C1 [TDI-008442] | 0.706 µM | –
O=C(CO)N1CCc2[nH]c3c(Cl)c(Cl)cc(Cc4ccc(-n5cccn5)cc4)c3c2C1 [TDI-008443] | 0.586 µM | –
Cn1nccc1-c1cc(Cl)c(Cl)c2[nH]c3c(c12)CN(C(=O)CO)CC3 [TDI-008444] | 3.24 µM | –
Cc1cc(-c2cc(Cl)c(Cl)c3[nH]c4c(c23)CN(C(=O)CO)CC4)ccn1 [TDI-008445] | 0.035 µM | –
Cc1ncccc1-c1cc(Cl)c(Cl)c2[nH]c3c(c12)CN(C(=O)CO)CC3 [TDI-008446] | 0.901 µM | –
Cc1cncc(-c2cc(Cl)c(Cl)c3[nH]c4c(c23)CN(C(=O)CO)CC4)c1 [TDI-008447] | 0.0249 µM | –
O=C(CO)N1CCc2[nH]c3c(Cl)c(Cl)cc(-c4cncc(F)c4)c3c2C1 [TDI-008448] | 0.0259 µM | –
CN1CC=C(c2cc(Cl)c(Cl)c3[nH]c4c(c23)CN(C(=O)CO)CC4)CC1 [TDI-008449] | 0.42 µM | –
O=C(CO)N1CCc2[nH]c3c(Cl)c(Cl)cc(-c4cncc(CO)c4)c3c2C1 [TDI-008450] | 0.0545 µM | –
O=C(CO)N1CCc2[nH]c3c(Cl)c(Cl)cc(-c4cnc(C(F)(F)F)nc4)c3c2C1 [TDI-008451] | 9.78 µM | –
Cn1nc(C(F)(F)F)cc1-c1cc(Cl)c(Cl)c2[nH]c3c(c12)CN(C(=O)CO)CC3 [TDI-008452] | 2.91 µM | –
O=C(CO)N1CCc2[nH]c3c(Cl)c(Cl)cc(-c4cncc(C(F)(F)F)c4)c3c2C1 [TDI-008455] | 0.154 µM | –
O=C(CO)N1CCc2[nH]c3c(Cl)c(Cl)cc(-c4ccc5c(c4)OCO5)c3c2C1 [TDI-008457] | 0.0446 µM | –

SMILES | IC50 (h-cGAS) | IC50 (THP1-Dual cells)
Cc1nc2ccc(-c3cc(Cl)c(Cl)c4[nH]c5c(c34)CN(C(=O)CO)CC5)cc2n1C [TDI-008460] | 0.83 µM | –
Cn1c(=O)[nH]c2cc(-c3cc(Cl)c(Cl)c4[nH]c5c(c34)CN(C(=O)CO)CC5)ccc21 [TDI-008461] | 0.344 µM | –
O=C1COc2cc(-c3cc(Cl)c(Cl)c4[nH]c5c(c34)CN(C(=O)CO)CC5)ccc2N1 [TDI-008462] | 1.2 µM | –
O=C(CO)N1CCc2[nH]c3c(Cl)c(Cl)cc(-c4ccc(S(=O)(=O)NCCCO)cc4)c3c2C1 [TDI-008464] | 3.91 µM | –
O=C(CO)N1CCc2[nH]c3c(Cl)c(Cl)cc(-c4ccn(C(F)F)n4)c3c2C1 [TDI-008474] | 0.018 µM | –
CNC(=O)c1cc(Cl)c(F)c2[nH]c3c(c12)CN(C(=O)CO)CC3 [TDI-008520] | 1.04 µM | –
CC(=O)Nc1cc(Cl)c(F)c2[nH]c3c(c12)CN(C(=O)CO)CC3 [TDI-008522] | 0.365 µM | –
Cc1nc(C)c(-c2cc(Cl)c(Cl)c3[nH]c4c(c23)CN(C(=O)CO)CC4)[nH]1 [TDI-008605] | 0.568 µM | –
Cc1noc(-c2cc(Cl)c(Cl)c3[nH]c4c(c23)CN(C(=O)CO)CC4)n1 [TDI-008768] | 0.0226 µM | 5.8 µM
Cc1nnc(-c2cc(Cl)c(Cl)c3[nH]c4c(c23)CN(C(=O)CO)CC4)o1 [TDI-008777] | 0.0305 µM | 12.9 µM
Cn1ccc(-c2cc(Br)c(F)c3[nH]c4c(c23)CN(C(=O)CO)CC4)n1 [TDI-008783] | 0.0172 µM | 3.41 µM
Cn1ccc(-c2cc(Cl)c(OCC(F)F)c3[nH]c4c(c23)CN(C(=O)CO)CC4)n1 [TDI-008796] | 0.984 µM | > 40 µM
CCOc1c(Cl)cc(-c2ccn(C)n2)c2c3c([nH]c12)CCN(C(=O)CO)C3 [TDI-008797] | 0.351 µM | –
O=C(CO)N1CCc2[nH]c3c(F)c(Cl)cc(N4CCCC4)c3c2C1 [TDI-008860] | 0.35 µM | > 10 µM
O=C(CO)N1CCc2[nH]c3c(F)c(Cl)cc(N4CCC5CC54)c3c2C1 (stereo not shown) [TDI-008861] | 0.48 µM | > 10 µM
C[C@@H]1CCN(c2cc(Cl)c(F)c3[nH]c4c(c23)CN(C(=O)CO)CC4)C1 [TDI-008862] | 0.478 µM | –
CC1CCN(c2cc(Cl)c(F)c3[nH]c4c(c23)CN(C(=O)CO)CC4)C1 (stereo not shown) [TDI-008863] | 0.147 µM | > 10 µM
O=C(CO)N1CCc2[nH]c3c(F)c(Cl)cc(N4CCC(O)C4)c3c2C1 (stereo not shown) [TDI-008864] | 0.455 µM | > 10 µM
N#CC1CCN(c2cc(Cl)c(F)c3[nH]c4c(c23)CN(C(=O)CO)CC4)C1 (stereo not shown) [TDI-008865] | 1.58 µM | > 10 µM
O=C(CO)N1CCc2[nH]c3c(F)c(Cl)cc(N4CCC(F)(F)C4)c3c2C1 [TDI-008866] | 0.452 µM | > 10 µM
Cc1nc(-c2cc(Cl)c(Cl)c3[nH]c4c(c23)CN(C(=O)CO)CC4)no1 [TDI-008937] | 0.0776 µM | 16.1 µM
C[C@@H]1CN(C(=O)CO)Cc2c1[nH]c1c(F)c(Cl)cc(-c3ccn(C)n3)c21 [TDI-009000] | 0.0245 µM | 2.89 µM
C[C@H]1CN(C(=O)CO)Cc2c1[nH]c1c(F)c(Cl)cc(-c3ccn(C)n3)c21 [TDI-009001] | 0.0327 µM | 3.18 µM
Cn1ncc(-c2cc(Cl)c(Cl)c3[nH]c4c(c23)CN(C(=O)CO)CC4)n1 [TDI-009007] | 0.0233 µM | 1.15 µM
